Read-outs that look alike come from different tables or passages of the source.
Tests used:
[1] = Online brain microdialysis UHPLC-HRMS/MS pharmacokinetics of Nic and its main metabolites in rat NAc after single Nic injection; type: in vivo; design: AUC0–360 min: unit not given here; conditions: for Cmax / MRT / Tmax / half-life: rat, brain microdialysate (NAc), ip; for half-life: read-out: t 1/2z
Procedure: (§1) To inhibit the main Nic metabolic enzyme CYP2B in the brain, rats received intraperitoneal injections of proadifen (50 mg kg^−1·day^−1, 4 d) ([Song et al., 2012]). Control animals were pretreated with saline using the same protocol. All the rats were sacrificed by cardiac perfusion after microdialysis sampling. The brain tissues were separated and divided into four parts (cerebrum, cerebellum, diencephalon, and brainstem). The CYP2B activity in different rat brain regions was determined following the instructions of the GENMED CYP2B1 activity fluorescence quantitative detection kit (GENMED SCIENTIFICS INC. U.S.A, GMS18019.1).
(§2) The mass spectrometer was operated in positive ionization mode. […] The normalized collision energy was set at 10%.

[2] = test system: monoamine neurotransmitters in rat striatum; conditions: rat striatum dialysate; after 3 h of Nic exposure (2 mg kg^-1 ip)
From the text: Anesthesia was induced with 3% isoflurane in an induction chamber before surgical procedures and was placed in a stereotaxic frame equipped with a rat ear and bite bar. Rat was maintained under anesthesia with 1%–2% isoflurane during operation procedures. And the cranium above the ventral striatum (coordinates relative to bregma: anterior/posterior (AP), +1.2 mm; medial/lateral (ML), −2.4 mm; dorsal/ventral (DV), −6.0 mm) or NAc (coordinates relative to bregma: anterior/posterior (AP), +1.7 mm; medial/lateral (ML), −1.5 mm; dorsal/ventral (DV), −6.5 mm) was exposed to implant the probe guide-cannula (CMA/12), two screws were implanted into the skull to serve as an anchor and dental cement was used as an adhesive to fixed the probe guide-cannula. To avoid the interference of neurotransmitter changes due to physical stimulation of pain receptors during intraperitoneal injection of Nic, Nic was injected with the aid of an administration catheter (Instech, BTPU-040, 6.35 × 10.16 mm, America), which was implanted in the abdomen, the other end of the catheter was passed under the skin and sent to the back and sealed with a plug (Instech, PNP3M-F22R, America). The rats were housed individually and allowed to recover from surgery for at least 24 h.
For in vivo microdialysis sampling, the probe (CMA/12 Elite, membrane parameters: polyarylethersulfone material; 2 mm length; φ 0.5 mm; 20 kDa cut-off) was inserted into the brain through the cannula. After implantation, the probe was perfused with Ringer’s solution by the syringe pump (CMA/402, piston propulsion speed: 2.4 μm·min^-1–1.2 mm min^-1; velocity range: 0.1 μL·min^-1–20 μL min^-1; precision: −1.5%-1.5%) at fixed flow rates (1.5 μL min^-1), and the dialysates were analyzed under the optimized UHPLC-HRMS/MS condition directly. Intraperitoneal administration of 2 mg kg^-1 Nic was performed until stable levels of neurotransmitters were obtained, which was defined as the mean value of neurotransmitter concentrations in six consecutive samples varied by no more than 10%.
UHPLC-HRMS/MS system was performed on Dionex Ultimate 3000 UHPLC equipped with a Q-Exactive mass spectrometer and electrospray ionization (ESI) interface (Thermo Fisher Scientific, Germany). Chromatographic separation was achieved by the pentafluorophenyl phase column (Discovery® HS F5-3 column, 2.1 × 150 mm, 3 μm) with linear binary gradient elution, at a flow rate of 0.5 mL min^-1. Eluent A was 10 mM ammonium acetate with FA (0.1%, v/v) dissolved in water, and eluent B was acetonitrile with 0.1% FA (v/v). […] From 3 to 6 min, a linear gradient was applied from 45% to 75% B and then return linearly to the initial condition at 9 min and the column was allowed to equilibrate for 1 min.
The mass spectrometer was operated in positive ionization mode. The optimized mass spectrometer parameters were as follows: a resolution of 35000; automatic gain control (AGC) target was 2.0 e^5; maximum injection time (IT) was 100 m; 3.5 kV for spray voltage; ion transfer tube temperature, 350°C; S-Lens RF level, 60%. The isolation window of the precursor ions was done using a quadrupole with an isolation window of m/z 1. The normalized collision energy was set at 10%. Analytes were determined by a parallel reaction monitoring (PRM) method by acquiring two transitions for each compound. The most specific transition was selected for the quantitative purpose. All data were gathered and analyzed using Xcalibur 2.2 software (Thermo Fisher Scientific, Germany). […]

[3] = test system: release of neurotransmitters in the NAc; test: Microdialysis release of neurotransmitters in rat NAc after Nic exposure under regulation of Nic metabolism; type: in vivo; conditions: for peak concentration of DOPAC / peak concentration of HVA: after Nic stimulation (2 mg kg^-1 ip)
Procedure: as §1, §2

CYP2B1 = biological target: T1, CYP2B1 (Rattus norvegicus, UniProt P00176); test: CYP2B1 activity in rat brain tissue after proadifen pretreatment (GENMED CYP2B1 activity fluorescence quantitative detection kit); type: in vivo; conditions: 4 days
T1 construct: The brain tissues were separated and divided into four parts (cerebrum, cerebellum, diencephalon, and brainstem); from tissue; host or cells: brain tissue (cerebrum, cerebellum, diencephalon, brainstem) of male Sprague Dawley rats
T1 sequence (P00176 1-491): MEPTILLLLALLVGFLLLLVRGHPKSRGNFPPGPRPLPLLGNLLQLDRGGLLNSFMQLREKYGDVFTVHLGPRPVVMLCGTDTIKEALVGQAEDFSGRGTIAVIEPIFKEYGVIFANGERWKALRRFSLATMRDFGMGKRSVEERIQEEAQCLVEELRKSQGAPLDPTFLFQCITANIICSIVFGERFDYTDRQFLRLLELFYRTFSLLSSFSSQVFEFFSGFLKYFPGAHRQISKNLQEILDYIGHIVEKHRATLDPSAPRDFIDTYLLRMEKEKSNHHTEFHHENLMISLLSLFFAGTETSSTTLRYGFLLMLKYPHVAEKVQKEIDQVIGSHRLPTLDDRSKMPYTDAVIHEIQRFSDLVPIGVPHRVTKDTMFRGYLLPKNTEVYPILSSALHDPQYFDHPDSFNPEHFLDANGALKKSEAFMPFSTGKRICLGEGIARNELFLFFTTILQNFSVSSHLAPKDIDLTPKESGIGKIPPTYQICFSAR
Procedure: as §1

[4] = rat NAc, Nic 2 mg kg^-1 ip, Prodifine (proadifen) pretreated
[5] = rat NAc, Nic 2 mg kg^-1 ip, saline-pretreated
[6] = 2 mg/kg, rat NAc, Nic 2 mg kg^-1 ip, Prodifine (proadifen) pretreated
[7] = 2 mg/kg, rat NAc, Nic 2 mg kg^-1 ip, saline-pretreated
[8] = after Nic exposure, proadifen pretreatment group
[9] = Nic 2 mg kg^-1 ip, proadifen vs saline pretreatment

Row | SMILES | CL/F [1, 4] [mL/min] | CL/F [1, 5] [mL/min] | Cmax [1, 6] [ng/mL] | MRT [1, 6] [h] | Tmax [1, 6] [h] | half-life [1, 6] [h] | Cmax [1, 7] [ng/mL] | MRT [1, 7] [h] | Tmax [1, 7] [h] | half-life [1, 7] [h] | also measured
1 | CN1C(=O)CC[C@H]1c1cccnc1 [Cot, (−) cotinine] | 7.0 | 9.0 | 20.3 | 3.12 | 2 | 2.19 | 16.7 | 3.11 | 2.67 | 1.74 | 
2 | C[N@+]1([O-])CCC[C@H]1c1cccnc1 [NNO, (1′S, 2′S)-nicotine-1′-oxide] | 3.2 | 5.0 | 5.2 | 1.57 | 0.667 | 0.895 | 15.1 | 2.39 | 0.5 | 0.802 | AUC0–360 min ([1]; rat NAc dialysate, Nic 2 mg kg^-1 ip single injection, Prodifine (proadifen 50 mg kg^-1 d^-1 ip, 4 days) pretreated, two-compartmental model): 0.6; decrease of C max (level) of Nic metabolite after CYP2B1 inhibition compared with control rats ([1]; rat brain, Nic 2 mg kg^-1 ip, proadifen-pretreated vs saline control): 65.6%
3 | CN1CCC[C@H]1c1cccnc1 [Nic, (−) nicotine] | 14.0 | 25.0 | 1220 | 1.89 | 0.5 | 1.28 | 968 | 1.43 | 0.5 | 2.15 | time by which Nic was almost completely cleared from the rat brain ([1]; Nic 2 mg kg^-1 ip): ≤ 360 min; brain C max of Nic in proadifen group relative to saline group ([1]; rat brain, Nic 2 mg kg^-1 ip, proadifen-pretreated vs saline): 1.26 times; Cmax ([1]; 2 mg kg^-1, rat NAc, Nic 2 mg kg^-1 ip, Prodifine (proadifen) pretreated): 1220 ng/mL; average level of 5-HIAA [2]: 234.4 µg/L; average level of 5-HT [2]: 45.9 µg/L; average level of DA [2]: 25.1 µg/L; average level of DOPAC [2]: 99.2 µg/L; average level of HVA [2]: 169.8 µg/L; C max of 5-HIAA [3, 8]: ~240 % of baseline; C max of 5-HT [3, 8]: ~390 % of baseline; peak level of Ach relative to baseline ([3]; after Nic injection): almost doubled; peak concentration of DOPAC ([3]; proadifen pretreated group): ~340 % of the baseline; peak concentration of HVA ([3]; proadifen pretreated group): ~330 % of the baseline; peak concentration of DOPAC ([3]; saline group): ~290 % of the baseline; peak concentration of HVA ([3]; saline group): ~270 % of the baseline
4 | CCCC(C(=O)OCCN(CC)CC)(c1ccccc1)c1ccccc1 [proadifen] |  |  |  |  |  |  |  |  |  |  | decrease of whole brain CYP2B1 activity on average (CYP2B1; proadifen 50 mg kg^-1 d^-1 ip, vs saline-pretreated rats): 36.9%; effect on brain CYP2B1 activity (CYP2B1; proadifen 50 mg·kg^−1·d^−1 ip): significant inhibition; effect of proadifen inhibition on Nic-induced peak level of Ach ([3]; Nic 2 mg kg^-1 ip): did not further increased it; average level of GABA in proadifen group relative to saline group [3, 9]: 2.7 times; average level of serotonin under inhibition of nicotine metabolism relative to control [3, 9]: 1.2 times

— article PMC10626537, “Pharmacokinetic and pharmacodynamic studies of nicotine in rat brain: a simultaneous investigation of nicotine metabolites and the release of neurotransmitters in vivo” (Frontiers in Chemistry, 2023)
